Measured values from patent US5283180A, “Bioluminescence method for the determination of pesticides” (priority 1992, dated 1994).
Like-named read-outs stand apart in the source and are kept apart here.

Assays:
[1] = tested on: Bee Brain Activity for Ac-luciferin (esterase activity of bee brain extract); type: biochemical, honey bees; conditions: for % activity: bee brain extract; for I50 (concentration of inhibitor which gives a 50% decrease in enzymatic activity as measured by bioluminescence): bee brain, Ac-luciferin substrate, 5 min
Procedure: (§1) 1. Sample is preincubated with a predetermined quantity (dilution 1:200) of brain preparation for 5 minutes.
(§2) 2. Luciferin acetate (200 pmoles) is added to the incubation mixture for additional 5 minutes.
(§3) 3. A portion of this […] mixture (100 μl) is withdrawn and added to the luciferase and ATP reaction mixture (1 ml).
(§4) 4. Bioluminescence reading for 2-5 seconds is monitored.
(§5) 5. The reading of the pesticide sample is compared to the control sample to quantitate the percent inhibition of the sample (see Tables 3, 4, 5 and 6) .
(§6) Insects are stored from at -20° C. or below. Insect heads are collected by dissection with a scalpel and placed in a 50 ml beaker containing approximately 15 ml ice cold 0.07M phosphate buffer, pH 7.0, containing 1 mM EDTA (ethylenediaminetetra acetic acid) and 1 μM phenylthiourea. The insect heads are gently homogenized at low speed in a Tekmar Tissumizer. Aliquots of this crude extract are transferred to microcentrifuge tubes and centrifuged. The supernatant is retained and applied to a sephadex G-25 column equilibrated with 0.07M phosphate buffer, pH 7.0, containing 1 mM EDTA and 1 μM phenylthiourea. Fractions are collected every 2 minutes and monitored for esterase activity using luciferin acetate as a substrate and measuring bioluminescence. Fractions with esterase activity are pooled and used as the insect head extract for use in the pesticide assay.
(§7) Notes: Brain extracts have been prepared primarily from honey bees, but also has been extracted from silkworm and blowflies. Protein concentration of the bee head extract is between 2 to 5 mg/ml. For the assay, 5 to 10 μl is used per assay.
(§8) 1. To 13×100 mm test tubes add 2 ml 0.07M phosphate buffer, pH 7.0. Add 25 μl positive pesticide control (organophosphate and/or carbamate pesticide), 25 μl water to negative control tube and 25 μl of test sample to another tube. If test sample contains solvent other than water, then use this solvent as the negative control tube.
(§9) 2. Add insert brain extract (5 or 10 μl depending on activity) to the 2 ml incubation mixture in step 1, vortex and incubate at 35° C. in temperature block for 10 minutes. Use timer with alarm to monitor time.
(§10) 3. At 10 minutes, add 25 μl 8.25 μM luciferin acetate solution to 2 ml incubation mixture in step 2. Reset timer to zero and restart timer.
(§11) 4. At 5 minutes, take 100 μl portion from each sample. Use separate pipette tip for each sample and add the 100 μl portion to separate 13×100 mm test tubes containing 1 ml of bioluminescence buffer.
(§12) 5. Add 30 μl ATP solution followed by 30 μl luciferase solution to one of the assay tubes in step 4. Vortex and measure bioluminescence for 2 to 5 seconds. Record value and proceed to the next tubes as above.
6. […] In the positive samples the esterolitic activity of the bee extract will be inhibited and less luciferin will form giving a low bioluminescent reading. Divide sample reading or positive control by zero control and multiply to 100 to get percent inhibition.

[2] = tested on: Silkworm Brain Activities; assay: Bioluminescence pesticide assay: inhibition of silkworm brain activities; type: biochemical; conditions: pesticide at 25 PPB
Procedure: as §1, §2, §3, §4, §5, §6, §7, §8, §9, §10, §11, §12
6. Zero control bioluminescence reaction will be uninhibited by pesticide and will have a high bioluminescence reading. In the positive samples the esterolitic activity of the bee extract will be inhibited and less luciferin will form giving a low bioluminescent reading. Divide sample reading or positive control by zero control and multiply to 100 to get percent inhibition.

| Structure (SMILES) | % activity ([1]; 12.5 ppb pesticide) | % activity ([1]; 25 ppb pesticide) | I50 (concentration of inhibitor which gives a 50% decrease in enzymatic activity as measured by bioluminescence) [1] | % activity ([1]; 6.25 ppb pesticide) | % activity ([1]; 0.625 ppb pesticide) | % activity ([1]; 1.25 ppb pesticide) | % activity ([1]; 2.5 ppb pesticide) | % activity ([1]; 3.125 ppb pesticide) | % Inhibition [2] | other results |
| --- | --- | --- | --- | --- | --- | --- | --- | --- | --- | --- |
| CNC(=O)Oc1cccc2c1OC(C)(C)O2 [Bendocarb] | 50% | 26% | 12 ppb |  |  |  |  |  |  | % activity ([1]; 50 ppb pesticide): 18%; % activity ([1]; 100 ppb pesticide): 11% |
| CNC(=O)Oc1cccc2c1OC(C)(C)C2 [Carbofuran] | 41% | 32% | 8 ppb | 59% |  |  |  |  |  | % activity ([1]; 50 ppb pesticide): 22% |
| CCOP(=S)(OCC)Oc1nc(Cl)c(Cl)cc1Cl [Chlorpyrifos] |  |  | 1 ppb | 10% | 68% | 34% | 24% | 13% |  |  |
| COP(=O)(OC)OC=C(Cl)Cl [DDVP] |  |  | 0.004 ppb |  |  |  |  |  | 100.0% | % activity ([1]; 0.0013 ppb pesticide): 74%; % activity ([1]; 0.0023 ppb pesticide): 49%; % activity ([1]; 0.0028 ppb pesticide): 60%; % activity ([1]; 0.0057 ppb pesticide): 52%; % activity ([1]; 0.011 ppb pesticide): 25% |
| CCOP(=S)(OCC)Oc1cc(C)nc(C(C)C)n1 [Diazinon] |  | 40% | 15 ppb |  |  |  |  |  | 0% | % activity ([1]; 100 ppb pesticide): 28% |
| CCOP(=S)(OCC)SCCSCC [Disulfoton] | 35% | 19% | 5 ppb | 47% |  |  |  | 66% | 25% |  |
| CCOP(=S)(OCC)SCSP(=S)(OCC)OCC [Ethion] |  |  | 2 ppb |  | 71% | 65% | 37% |  | 77.0% | % activity ([1]; 0.3125 ppb pesticide): 84% |
| CCOC(=O)CC(SP(=S)(OC)OC)C(=O)OCC (stereo not shown) [Malathion] | 50% | 27% | 6 ppb | 53% |  |  |  |  |  | % activity ([1]; 50 ppb pesticide): 27% |
| CNC(=O)ON=C(C)SC [Methomyl] | 20% | 12% | 4 ppb | 16% |  |  |  | 45% |  |  |
| COP(=S)(OC)Oc1ccc([N+](=O)[O-])cc1 [Methyl parathion] |  |  | 1 ppb |  | 62% | 40% | 23% |  | 0% |  |
| COC(=O)C=C(C)OP(=O)(OC)OC [Mevinphos] |  |  | 2 ppb | 9% | 52% | 48% | 24% | 12% | 50% | % activity ([1]; 0.3125 ppb pesticide): 64% |
| COP(=O)(OC)OC(Br)C(Cl)(Cl)Br (stereo not shown) [Naled] |  |  | 0.05 ppb |  | 29% |  |  |  | 98.0% | % activity ([1]; 0.031 ppb pesticide): 50%; % activity ([1]; 0.125 ppb pesticide): 30%; % activity ([1]; 0.250 ppb pesticide): 25% |
| CC[S+]([O-])CCSP(=O)(OC)OC (stereo not shown) [Oxydemeton-methyl] |  | 21% | 1 ppb |  | 43% | 47% | 37% |  | 0% | % activity ([1]; 0.3125 ppb pesticide): 90% |
| CCOP(=S)(OCC)SCSCC [Phorate] | 3% |  | 2 ppb | 8% |  | 70% | 29% | 23% | 50.5% |  |
| CNC(=O)Oc1ccccc1OC(C)C [Propoxur] | 43% | 44% | 10 ppb |  |  |  |  |  |  | % activity ([1]; 3.1 ppb pesticide): 62%; % activity ([1]; 62.5 ppb pesticide): 29%; % activity ([1]; 125.0 ppb pesticide): 27% |
